Source: patent US20040014972A1, “Arylpiperazine derivatives and their use as psychotropic agents” (priority 2000, published 2004)

SMILES: O=C(O)/C=C/C(=O)O.OC(CCCN1CCN(c2cccc3cccnc23)CC1)c1ccc(F)cc1 (stereo not drawn)
- melting point: 145 to 146 °C

SMILES: Cl.Cl.O=C(CCCN1CCN(c2cccc3[nH]ccc23)CC1)c1ccc(F)cc1
- melting point: 233 to 234 °C

SMILES: Cl.Cl.Cl.O.O.O=C(CCCN1CCN(c2cccc3cccnc23)CC1)c1ccc(F)cc1 (hydrate or solvate)
- melting point: 119 to 120 °C
